“And” between values parts separate entries of the source, which are not always exact repeats. Identical values can stand only once.
How the values were obtained:
[1] = biological target: T1, Cox-1 (Ovis aries, UniProt P05979); test: inhibiting activity to COX-1 (TMPD colorimetric, 590 nm); type: biochemical; conditions: tested at 300, 100, 30, 10 μmol/L (positive control 100, 30, 10, 3)
T1 construct: purchased Cayman, USA
T1 sequence (P05979 25-600): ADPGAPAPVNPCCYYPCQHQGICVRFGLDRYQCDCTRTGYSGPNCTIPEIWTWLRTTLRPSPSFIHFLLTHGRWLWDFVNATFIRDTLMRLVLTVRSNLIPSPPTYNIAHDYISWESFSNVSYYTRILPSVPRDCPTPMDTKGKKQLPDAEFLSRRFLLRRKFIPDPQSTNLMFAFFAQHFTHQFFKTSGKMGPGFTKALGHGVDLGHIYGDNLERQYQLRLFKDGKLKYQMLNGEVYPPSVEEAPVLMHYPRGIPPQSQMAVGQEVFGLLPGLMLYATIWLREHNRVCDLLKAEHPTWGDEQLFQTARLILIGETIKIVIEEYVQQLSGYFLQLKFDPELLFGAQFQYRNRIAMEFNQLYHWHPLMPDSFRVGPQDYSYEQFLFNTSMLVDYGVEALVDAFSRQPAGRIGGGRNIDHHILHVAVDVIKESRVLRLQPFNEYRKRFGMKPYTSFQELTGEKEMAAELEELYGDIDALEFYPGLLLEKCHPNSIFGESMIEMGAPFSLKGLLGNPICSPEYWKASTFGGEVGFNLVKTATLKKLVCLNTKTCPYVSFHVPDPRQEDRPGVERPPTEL
Procedure: (§1) 2.5.1 The Inhibiting Activity to COX-1/COX-2
(§2) (1) In 220 ul of reaction system, mixed buffer (1×), heme, COX-1/COX-2, and the compound to be tested, are sequentially added, and are incubated for 5 minutes at 25° C.;
(§3) (2) Adding chromogenic substrate (TMPD) and arachidonic acid;
(§4) (3) Carefully shaking the plate for several seconds, then incubating for 15 minutes at 25° C.;
(§5) (4) Detecting absorption value at 590 nm.
(§6) Fitting data of concentration (μmol/L) and corresponding inhibition rate (%) via Microsoft EXCEL software to get a trendline, so as to obtain the half-effective inhibiting concentration (IC50) of each tested enzyme.

[2] = biological target: T2, Cox-2 (Homo sapiens, UniProt P35354); test: inhibiting activity to COX-2 (TMPD colorimetric, 590 nm); type: biochemical; conditions: tested at 300, 100, 30, 10 μmol/L (positive control 100, 30, 10, 3)
T2 construct: purchased Cayman, USA
T2 sequence (P35354 18-604): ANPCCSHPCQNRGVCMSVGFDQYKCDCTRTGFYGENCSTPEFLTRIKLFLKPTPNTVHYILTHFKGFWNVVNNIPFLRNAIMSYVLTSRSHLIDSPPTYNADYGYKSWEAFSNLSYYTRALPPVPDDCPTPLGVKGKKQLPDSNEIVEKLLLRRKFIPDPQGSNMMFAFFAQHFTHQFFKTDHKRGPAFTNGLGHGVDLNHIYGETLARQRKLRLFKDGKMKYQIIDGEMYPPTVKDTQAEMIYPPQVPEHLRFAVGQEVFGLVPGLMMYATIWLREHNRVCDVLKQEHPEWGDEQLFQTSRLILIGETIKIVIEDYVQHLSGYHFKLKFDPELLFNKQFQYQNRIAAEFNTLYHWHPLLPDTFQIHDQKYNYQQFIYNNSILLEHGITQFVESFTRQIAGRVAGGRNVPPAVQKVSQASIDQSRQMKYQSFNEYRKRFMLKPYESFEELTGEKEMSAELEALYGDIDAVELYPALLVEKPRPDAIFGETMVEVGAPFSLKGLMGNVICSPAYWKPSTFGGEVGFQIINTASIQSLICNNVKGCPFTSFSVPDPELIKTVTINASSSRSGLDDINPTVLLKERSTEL
Procedure: as §1, §2, §3, §4, §5, §6

[3] = biological target: T3, 5-Lox (human recombinant) (Homo sapiens, UniProt P09917); test: inhibiting activity to 5-lipoxygenase (500 nm); type: biochemical; conditions: tested at 300, 100, 30, 10 μmol/L (positive control 100, 30, 10, 3)
T3 construct: purchased Cayman, USA
T3 sequence (P09917 1-674): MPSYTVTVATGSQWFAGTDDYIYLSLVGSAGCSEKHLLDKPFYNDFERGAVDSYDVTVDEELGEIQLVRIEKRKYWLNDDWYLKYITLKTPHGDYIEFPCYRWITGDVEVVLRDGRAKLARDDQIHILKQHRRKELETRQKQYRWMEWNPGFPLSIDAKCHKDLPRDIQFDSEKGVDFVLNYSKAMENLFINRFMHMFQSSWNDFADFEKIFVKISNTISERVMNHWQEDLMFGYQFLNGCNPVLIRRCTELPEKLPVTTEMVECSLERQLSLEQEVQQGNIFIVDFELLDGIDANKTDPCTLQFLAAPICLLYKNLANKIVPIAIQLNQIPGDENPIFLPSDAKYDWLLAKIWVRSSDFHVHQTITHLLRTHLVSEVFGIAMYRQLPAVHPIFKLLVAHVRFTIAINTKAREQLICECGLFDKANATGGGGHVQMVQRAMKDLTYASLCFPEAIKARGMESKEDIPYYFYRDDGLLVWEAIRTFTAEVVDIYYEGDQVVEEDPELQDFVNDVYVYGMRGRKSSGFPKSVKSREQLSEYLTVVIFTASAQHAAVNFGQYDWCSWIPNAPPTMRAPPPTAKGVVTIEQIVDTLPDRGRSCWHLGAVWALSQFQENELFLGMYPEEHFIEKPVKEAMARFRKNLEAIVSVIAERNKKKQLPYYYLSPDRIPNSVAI
Source text: as §6

[4] = system: ICR mice; test: in vivo
Source text: (§7) Each tested group includes 5 dose-groups during the tests as follows:
Intragastric administration (ig)
(3) Observed periods: 14 days

[5] = system: ICR mice; test: in vivo; remark: listed apart in the source
Source text: as §7
Intraperitoneal injection (ip)
(3) Observed periods: 14 days.

[6] = system: SD rats; test: toxicity test in SD rats, four-week consecutive intragastric administration; conditions: rats
Procedure: 2. […] The tested samples are formulated into suspensions by milling with 0.5% CMC—Na; intragastric administration every day (10 ml/kg) for consecutive 4 weeks; on each day, after administration, the general conditions of the animals are observed, and weight and amount of ingestion are determined once every week. In 24 hours after the last administration, the rats are fasted overnight, blood samples are withdrawn via femoral arteries, and the rats are dissected, and the indexes of blood cytology and biochemics, gloss anatomy and histopathological examination are preformed.

[7] = system: SD rats; test: long-term toxicity test in SD rats, thirteen-week consecutive intragastric administration and four-week convalescence; conditions: rats
Procedure: 2. […] The tested samples are formulated into suspensions by milling with 0.5% CMC—Na; intragastric administration (10 ml/kg) every day for consecutive 13 weeks; on each day, after administration, the general conditions of the animals are observed, and weight and amount of ingestion are determined once every week. In 24 hours after the last administration, half of rats in each tested group are fasted overnight, blood samples are withdrawn via femoral arteries, and the rats are dissected, and the indexes of blood cytology and biochemics, gloss anatomy and histopathological examination are preformed. The administration to remaining half rats is stopped, and the convalescence is observed; general conditions are observed and weight and amount of ingestion are determined once every week. After 4 weeks, the observation is complete, and the half of rats in each tested group are fasted overnight, blood samples are withdrawn via femoral arteries, and the rats are dissected, and the indexes of blood cytology and biochemics, gloss anatomy and histopathological examination are preformed.

Substance: R-10,11-dihydro-alpha-methyl-10-oxo-dibenzo[b,f]tiazem-2-acetic acid:S-10,11-dihydro-alpha-methyl-10-oxo-dibenzo[b,f]tiazem-2-acetic acid (6:1) [S:R = 1:6]
- IC50 [1]: 70.3 µM
- IC50 [2]: 5.2 µM
- IC50 [3]: 18.6 µM
- Com. Vs. S (multiple) ([4]; LD50 ig compared with S): 4.2 multiple
- LD50 ([4]; mice, ig, single dose, 14 days observation, Bliss method): 1138.5 ± 80.3 mg/kg and 1138.5 mg/kg
- Com. Vs. S (multiple) ([5]; LD50 ip compared with S): 2.5 multiple
- LD50 ([5]; mice, ip, single dose, 14 days observation, Bliss method): 497.6 ± 28.6 mg/kg
- gastrointestinal tract toxicity ([6]; four-week ig, S 80, 40, RS 80, R 480, 240, 120, R:S=6:1 320, 160, 80 mg/kg): do not produce significant gastrointestinal tract toxicity
- nontoxic dosage ([6]; four-week consecutive intragastric administration): 160 mg/kg
- gastrointestinal tract toxicity ([7]; 13-week ig, S 50, 25, RS 50, R 400, 200, 100, R:S=6:1 200, 100, 50 mg/kg): not produce significant gastrointestinal tract toxicity
- nontoxic dosage ([7]; 13-week consecutive intragastric administration): 100 mg/kg

From patent publication US20110224276A1, “OPTICAL ISOMER OF PHENYLPROPIONIC ACID AND ITS MEDICINAL USE” (priority 2008, published 2011)
